This passage reports IC50 results from patent US20240425529A1, “BORIC ACID DERIVATIVE” (SHOUYAO HOLDINGS (BEIJING) CO., LTD., priority 2021, published 2024).

The target of assay [1] is T1, LMP7 (Homo sapiens, UniProt P28062).
T1 construct: using MOLT-4 cell lysate as the enzyme source of LMP7; endogenous in cells; host or cells: MOLT-4 (human acute lymphoblastic leukemia cells)
Put plainly: Cytological inhibitory activity on LMP7 in MOLT-4 cells. To be noted: incubation for 2 hours with compound, read-out: Cytological activity data LMP7 Activity (MOLT-4Cell). Format: cell-based. A digest of the protocol:
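MOLT-4 cells pre-incubated 2 h with compound (8 concentrations, 5-fold dilution series from 2 mM DMSO stock, 5% FBS), washed and lysed. Lysate (20 ng/μl, 2× stock) reacted with Ac-ANW-AMC (100 μM, 2× stock) in 20 mM Tris pH 8.0, 0.5 mM EDTA, 1 h, 23 °C. Fluorescence at 345/445 nm; IC50 fitted.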

The target in assay [2] is T1, LMP7. Put plainly: Enzymatic inhibitory activity on LMP7 (MOLT-4 cell lysate, Ac-ANW-AMC substrate). Format: biochemical. To be noted: 1 hour pre-incubation. A digest of the protocol:
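Enzyme source was MOLT-4 cell lysate (20 ng/μl final) in 20 mM Tris pH 8.0, 0.5 mM EDTA, preincubated 1 h at 23 °C with compound at 9 final concentrations (0–2000 nM). Ac-ANW-AMC ([…]) was then added, 2 h at 23 °C in the dark. AMC fluorescence (ex 345/em 445 nm) gave the IC50.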

Consider `CC1CC(C)(C)OB([C@H](Cc2coc3ccccc23)NC(=O)C(=O)Nc2cnccn2)O1` (some centres unmarked) [Ex. 67], for which the IC50 was determined as 0.79 nM at LMP7 [1] and 1.59 nM against LMP7 [2].
With `O=C(Nc1cnccn1)C(=O)N[C@@H](Cc1coc2ccccc12)B(O)O` [Ex. 9, (R)-(2-(benzofuran-3-yl)-1-(2-oxo-2-(pyrazin-2-ylamino)acetamido)ethyl) boronic acid], the IC50 at LMP7 [1] was 4.82 nM; on LMP7 [2] it was 9.02 nM.
For `Cc1cnc(NC(=O)C(=O)N[C@@H](Cc2coc3ccccc23)B(O)O)s1` [Ex. 32, (R)-(2-(benzofuran-3-yl)-1-(2-oxo-2-((5-methylthiazol-2-yl)amino)acetamido)ethyl)boronic acid] the same measures were 1.72 nM and 4.6 nM.
For `O=C(Nc1cc(Cl)ccn1)C(=O)N[C@@H](Cc1coc2ccccc12)B(O)O` [Ex. 49, (R)-(2-(benzofuran-3-yl)-1-(2-oxo-2-((4-chloropyridin-2-yl)amino)acetamido)ethyl)boronic acid] the same measures were 1.9 nM and 1.51 nM.
The corresponding values for `O=C(Nc1nc2ccccc2s1)C(=O)N[C@@H](Cc1coc2ccccc12)B(O)O` [Ex. 27, (R)-(2-(benzofuran-3-yl)-1-(2-oxo-2-((benzo[d]thiazol-2-yl)amino)acetamido)ethyl)boronic acid] are 1.58 nM and 3.53 nM.
For `O=C(Nc1ccccn1)C(=O)N[C@@H](Cc1coc2ccccc12)B(O)O` [Ex. 12], the values for the IC50 at LMP7 [1] and at LMP7 [2] were 3.77 nM and 9.64 nM, respectively.
For `O=C1COB([C@H](Cc2coc3ccccc23)NC(=O)C(=O)Nc2cnccn2)O1` [Ex. 73] the same measures were 1.15 nM and 1.23 nM.
